# Strand notation (5' to 3'): a small letter for the sugar, then the base; units joined by * are phosphorothioate-linked, units joined directly phosphodiester-linked; [ ] holds rarer units or linkages, { } end groups; capitals alone tell only the bases. e = 2'-O-(2-methoxyethyl) (MOE); [5mC] = 5-methylcytosine; d = 2'-deoxy (DNA)
# What was measured:
# human PKK mRNA [1] = experiment: Dose-dependent antisense inhibition of human PKK in HepaRG cells, 0.19-5.00 uM (Example 5); format: cell-based; settings: HepaRG cells
# In short: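 HepaRG cells (20,000/well) were electroporated with antisense oligonucleotide at 0.19, 0.56, 1.67 and 5.00 μM and treated for about 16 hours. PKK mRNA was quantified by qRT-PCR with primer probe set RTS3454, normalised to RIBOGREEN total RNA, and IC50 was derived per oligonucleotide.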
# human PKK mRNA [2] = experiment: Antisense inhibition of human PKK mRNA in HepaRG cells, 5,000 nM (Example 2); format: cell-based
# In short: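 Percent inhibition of PKK mRNA is reported relative to untreated cells, after adjustment for total RNA by RIBOGREEN. Gapmers of 16–20 nucleosides with 2′-MOE wings were delivered at 5,000 nM by electroporation into HepaRG cells and left for roughly 24 hours before RNA isolation.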
# [3] = electroporation, approximately 16 hours, Table 36
# [4] = 4 point dose response, Table 36
# [5] = electroporation, approximately 16 hours, Table 40
# [6] = Table 8, HepaRG cells, electroporation with 5,000 nM antisense oligonucleotide, approx. 24 hours, PKK mRNA by RT-PCR (RTS3454), relative to untreated control cells
# [7] = electroporation, approximately 16 hours, Table 35
# [8] = human PKK mRNA in HepaRG cells, 5-10-5 gapmers, Table 14
# [9] = electroporation, approximately 16 hours, Table 38
substance,measurement,setting,value
547298 (antisense eT*eT*eG*eG*eG*dT*dG*dG*dA*dA*dT*dG*dT*dG*d[5mC]*eA*e[5mC]*e[5mC]*eT*e[5mC]) [compound 547298],percent inhibition of PKK at 0.19 μM,human PKK mRNA [1]; [3],32%
same,percent inhibition of PKK at 0.56 μM,human PKK mRNA [1]; [3],61%
same,percent inhibition of PKK at 1.67 μM,human PKK mRNA [1]; [3],74%
same,percent inhibition of PKK at 5.00 μM,human PKK mRNA [1]; [3],90%
same,IC50,human PKK mRNA [1]; [4],0.4 µM
same,"percent inhibition of PKK mRNA, 0.19 μM",human PKK mRNA [1]; 0.19 μM antisense oligonucleotide,0%
same,"percent inhibition of PKK mRNA, 0.56 μM",human PKK mRNA [1]; 0.56 μM antisense oligonucleotide,12%
same,"percent inhibition of PKK mRNA, 1.67 μM",human PKK mRNA [1]; 1.67 μM antisense oligonucleotide,67%
same,"percent inhibition of PKK mRNA, 5.00 μM",human PKK mRNA [1]; 5.00 μM antisense oligonucleotide,87%
same,IC50,human PKK mRNA [1]; 0.19-5.00 μM,1.7 µM
same,% inhibition,"human PKK mRNA [2]; HepaRG cells, electroporation with 5,000 nM antisense oligonucleotide, approximately 24 hours, PKK mRNA by RT-PCR (RTS3454), relative to untreated control cells, Table 5 experiment",90%
546291 (antisense e[5mC]*eA*eG*eG*eG*d[5mC]*d[5mC]*dA*d[5mC]*dT*d[5mC]*dT*d[5mC]*d[5mC]*d[5mC]*e[5mC]*eA*eA*eG*eA) [compound 546291],percent inhibition of PKK at 0.19 μM,human PKK mRNA [1]; [5],22%
same,percent inhibition of PKK at 0.56 μM,human PKK mRNA [1]; [5],32%
same,percent inhibition of PKK at 1.67 μM,human PKK mRNA [1]; [5],34%
same,percent inhibition of PKK at 5.00 μM,human PKK mRNA [1]; [5],72%
same,IC50,"human PKK mRNA [1]; 4 point dose response, Table 40",2 µM
same,% inhibition,human PKK mRNA [2]; [6],81%
547602 (antisense eT*e[5mC]*eA*e[5mC]*eT*dG*dT*dA*d[5mC]*d[5mC]*dT*dA*dT*dA*dA*e[5mC]*eT*e[5mC]*eT*eA) [compound 547602],percent inhibition of PKK at 0.19 μM,human PKK mRNA [1]; [7],18%
same,percent inhibition of PKK at 0.56 μM,human PKK mRNA [1]; [7],53%
same,percent inhibition of PKK at 1.67 μM,human PKK mRNA [1]; [7],92%
same,percent inhibition of PKK at 5.00 μM,human PKK mRNA [1]; [7],87%
same,percent inhibition of PKK at 5.00 μM,"human PKK mRNA [1]; electroporation, approximately 16 hours, Table 41",93%
same,percent inhibition of PKK at 0.19 0μM,"human PKK mRNA [1]; 0.19 0μM, electroporation, approximately 16 hours, Table 41",1%
same,percent inhibition of PKK at 0.56 0μM,"human PKK mRNA [1]; 0.56 0μM, electroporation, approximately 16 hours, Table 41",9%
same,percent inhibition of PKK at 1.67 1μM,"human PKK mRNA [1]; 1.67 1μM, electroporation, approximately 16 hours, Table 41",52%
same,IC50,"human PKK mRNA [1]; 4 point dose response, Table 35",0.5 µM
same,IC50,"human PKK mRNA [1]; 4 point dose response, Table 41",1.4 µM
same,% inhibition,human PKK mRNA [2]; [8],93%
546854 (eT*eA*eA*e[5mC]*eA*dG*dT*dA*dT*d[5mC]*dA*d[5mC]*dT*dG*dT*e[5mC]*e[5mC]*eT*eA*eT; antisense) [compound 546854],percent inhibition of PKK at 0.19 μM,human PKK mRNA [1]; [3],23%
same,percent inhibition of PKK at 0.56 μM,human PKK mRNA [1]; [3],39%
same,percent inhibition of PKK at 1.67 μM,human PKK mRNA [1]; [3],83%
same,percent inhibition of PKK at 5.00 μM,human PKK mRNA [1]; [3],94%
same,IC50,human PKK mRNA [1]; [4],0.6 µM
same,% inhibition,human PKK mRNA [2]; [8],90%
546287 (antisense eG*eT*eT*eG*eT*d[5mC]*d[5mC]*d[5mC]*d[5mC]*dA*dG*dT*dG*dT*dT*eA*e[5mC]*eA*e[5mC]*eA) [compound 546287],percent inhibition of PKK at 0.19 μM,human PKK mRNA [1]; [9],0%
same,percent inhibition of PKK at 0.56 μM,human PKK mRNA [1]; [9],15%
same,percent inhibition of PKK at 1.67 μM,human PKK mRNA [1]; [9],39%
same,percent inhibition of PKK at 5.00 μM,human PKK mRNA [1]; [9],89%
same,IC50,"human PKK mRNA [1]; 4 point dose response, Table 38",1.7 µM
same,% inhibition,human PKK mRNA [2]; [6],82%
546826 (eA*eG*eT*eA*eT*d[5mC]*dA*d[5mC]*dT*dG*dT*dA*d[5mC]*dT*dA*eG*eT*eT*eT*e[5mC]; antisense) [compound 546826],percent inhibition of PKK at 0.19 μM,human PKK mRNA [1]; [3],17%
same,percent inhibition of PKK at 0.56 μM,human PKK mRNA [1]; [3],40%
same,percent inhibition of PKK at 1.67 μM,human PKK mRNA [1]; [3],87%
same,percent inhibition of PKK at 5.00 μM,human PKK mRNA [1]; [3],97%
same,IC50,human PKK mRNA [1]; [4],0.7 µM
same,% inhibition,"human PKK mRNA [2]; Table 13, human PKK mRNA in HepaRG cells, 5-10-5 gapmers",90%
